# The supplement of paper PMC10307832
# Compound: CC(C)C[C@H](NC(=O)[C@H](CCc1ccccc1)NC(=O)CN1CCOCC1)C(=O)N[C@@H](Cc1ccccc1)C(=O)N[C@@H](CC(C)C)C(=O)[C@@]1(C)CO1 [Carfilzomib] + COc1cccc2cc(-c3nc([C@H]4CC[C@H](C(=O)O)CC4)n4ncnc(N)c34)[nH]c12 [OSI-027] (partner 0.5 µM)
# Assay: relative viability (nuclei count vs DMSO), 5 days (fraction); higher = more cells survive
# Conditions: first compound 0.001 µM
# In short: (§1)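 Relative viability divides the nuclei count in treated wells by that in vehicle wells. Lung cancer cell lines were seeded in 1536-well plates, dosed by pin tool the next day, and fixed and stained after 5 days in one step with final 0.05% Triton X-100, 1% formaldehyde and 1 ug/ml Hoechst. Dosing was a single drug or a fixed anchor-drug dose plus five library-drug doses (not always all listed) in √10 steps, and values are medians of duplicate plates imaged at 4×.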
row,Cell Line,relative viability
1,NCI-H1650,0.656
2,NCI-H1651,0.733
3,NCI-H1666,0.807
4,NCI-H1734,0.62
5,NCI-H1755,0.707
6,NCI-H1915,0.596
7,NCI-H1944,0.389
8,NCI-H1993,0.573
9,NCI-H2009,0.758
10,NCI-H2023,0.386
11,NCI-H2085,0.59
12,NCI-H2087,0.593
13,NCI-H2126,0.721
14,NCI-H2170,0.643
15,NCI-H2228,0.506
16,NCI-H2347,0.415

# Same assay, conditions: first compound 0.003162 µM
row,Cell Line,relative viability
1,NCI-H23,0.887
2,NCI-H322M,0.624
3,NCI-H358,0.834
4,NCI-H441,0.588
5,NCI-H460,0.678
6,NCI-H520,0.259
7,NCI-H596,1
8,NCI-H647,0.747
9,NCI-H650,0.612
10,NCI-H661,0.705
11,NCI-H727,0.646
12,NCI-H838,0.45
13,NCI-H1355,0.495
14,NCI-H1395,0.734
15,NCI-H1437,0.952
16,NCI-H1650,0.496

row,Cell Line,relative viability
1,NCI-H1651,0.743
2,NCI-H1666,0.87
3,NCI-H1734,0.683
4,NCI-H1755,0.777
5,NCI-H1915,0.654
6,NCI-H1944,0.489
7,NCI-H1975,0.715
8,NCI-H1993,0.569
9,NCI-H2009,0.778
10,NCI-H2023,0.435
11,NCI-H2085,0.799
12,NCI-H2087,0.636
13,NCI-H2126,0.707
14,NCI-H2170,0.696
15,NCI-H2228,0.736
16,NCI-H2405,0.667

# Same assay, conditions: first compound 0.01 µM
row,Cell Line,relative viability
1,NCI-H23,0.716
2,NCI-H322M,0.606
3,NCI-H358,0.888
4,NCI-H441,0.295
5,NCI-H460,0.697
6,NCI-H520,0.22
7,NCI-H596,0.684
8,NCI-H647,0.583
9,NCI-H650,0.54
10,NCI-H661,0.722
11,NCI-H727,0.734
12,NCI-H838,0.431
13,NCI-H1355,0.493
14,NCI-H1395,0.642
15,NCI-H1437,0.841
16,NCI-H1650,0.162
17,NCI-H1651,0.588

row,Cell Line,relative viability
1,NCI-H1666,0.955
2,NCI-H1734,0.585
3,NCI-H1755,0.746
4,NCI-H1915,0.59
5,NCI-H1944,0.474
6,NCI-H1975,0.503
7,NCI-H1993,0.576
8,NCI-H2009,0.631
9,NCI-H2023,0.467
10,NCI-H2085,0.64
11,NCI-H2087,0.302
12,NCI-H2126,0.76
13,NCI-H2170,0.792
14,NCI-H2228,0.397
15,NCI-H2347,0.366
16,NCI-H2405,0.651

# Same assay, conditions: first compound 0.03162 µM
row,Cell Line,relative viability
1,NCI-H23,0.145
2,NCI-H322M,0.462
3,NCI-H358,0.0702
4,NCI-H441,0.153
5,NCI-H460,0.287
6,NCI-H520,0.221
7,NCI-H596,0.372
8,NCI-H647,0.0357
9,NCI-H650,0.439
10,NCI-H661,0.675
11,NCI-H727,0.463
12,NCI-H838,0.388
13,NCI-H1355,0.311
14,NCI-H1395,0.5
15,NCI-H1437,0.889
16,NCI-H1650,0.142
17,NCI-H1651,0.127

row,Cell Line,relative viability
1,NCI-H1666,0.749
2,NCI-H1734,0.222
3,NCI-H1755,0.65
4,NCI-H1915,0.457
5,NCI-H1944,0.46
6,NCI-H1975,0.0875
7,NCI-H1993,0.443
8,NCI-H2009,0.111
9,NCI-H2023,0.147
10,NCI-H2085,0.264
11,NCI-H2087,0.0521
12,NCI-H2126,0.726
13,NCI-H2170,0.72
14,NCI-H2228,0.0668
15,NCI-H2347,0.26
16,NCI-H2405,0.507

# Same assay, conditions: first compound 0.1 µM
row,Cell Line,relative viability
1,NCI-H23,0.144
2,NCI-H322M,0.332
3,NCI-H358,0.0685
4,NCI-H441,0.16
5,NCI-H460,0.022
6,NCI-H520,0.191
7,NCI-H596,0.149
8,NCI-H647,0.0226
9,NCI-H650,0.221
10,NCI-H661,0.394
11,NCI-H727,0.242
12,NCI-H838,0.131
13,NCI-H1355,0.163
14,NCI-H1395,0.309
15,NCI-H1437,0.241
16,NCI-H1650,0.198
17,NCI-H1651,0.0922

row,Cell Line,relative viability
1,NCI-H1666,0.383
2,NCI-H1734,0.138
3,NCI-H1755,0.25
4,NCI-H1915,0.0943
5,NCI-H1944,0.173
6,NCI-H1975,0.106
7,NCI-H1993,0.459
8,NCI-H2009,0.0867
9,NCI-H2023,0.0792
10,NCI-H2085,0.27
11,NCI-H2087,0.0683
12,NCI-H2126,0.331
13,NCI-H2170,0.271
14,NCI-H2228,0.0974
15,NCI-H2347,0.217
16,NCI-H2405,0.305

# Compound: CC(C)C[C@H](NC(=O)[C@H](CCc1ccccc1)NC(=O)CN1CCOCC1)C(=O)N[C@@H](Cc1ccccc1)C(=O)N[C@@H](CC(C)C)C(=O)[C@@]1(C)CO1 [Carfilzomib] + Cc1cc(Nc2cc(N3CCN(C)CC3)nc(Sc3ccc(NC(=O)C4CC4)cc3)n2)n[nH]1 [Tozasertib] (partner 0.1 µM)
# Assay: as above
# Conditions: first compound 0.001 µM
# In short: as §1
row,Cell Line,relative viability
1,NCI-H23,0.382
2,NCI-H322M,0.473
3,NCI-H358,0.0998
4,NCI-H441,0.6
5,NCI-H460,0.363
6,NCI-H520,0.515
7,NCI-H596,1.16
